Measurements published in patent US20240092756A1, “METHODS AND COMPOSITION FOR KRAS MODIFICATIONS” (2692372 ONTARIO, INC., priority 2020, published 2024).

Columns and labels:
KRAS G12C = KRAS G12C (Homo sapiens, UniProt P01116, G12C); experiment: Differential scanning fluorimetry, KRAS G12C; type: binding; design: purchased; key: Y: protein destabilized; N: protein not destabilized; conditions: 37° C. 5 hours incubation
Protocol: KRas proteins at 0.05 mg/ml in buffer Hepes, 147 mM NaCl, 2% glycerol, 5 mM MgCl2, 1 mM EDTA, 10 μM GDP, pH 8.0 were incubated in the presence desired concentration of compounds (5% DMSO final concentration) at 37° C. for 5 hours. After incubation, Sypro Oange to a final concentration of 5× was added to each sample. 20 μl aliquots of samples were transferred PCR tubes, sealed with caps, and run in a BioRad CFX96 RTPCR thermocycler. In the instrument, the samples were heated at a rate of 1° C./min from 25 to 90 degrees. Fluorescence readings were taken every 1 degree. The data generated was exported and analyzed using GraphPad-Prism software. The denaturation curves were fit using a Boltzmann sigmoidal equation to calculate melting temperatures (Tm).

[1] = system: phospho-ERK1/2 in MIA PaCa-2 cells (express KRAS G12C); experiment: ERK1/2 phosphorylation in MIA PaCa-2 cells; type: cell-based, human; design: key: X: KRAS G12C bound and modulated in cells

KRAS G12C DSF ΔTm (KRAS G12C) | SMILES | pERK - MIA PaCa-2 - (6 hours, 5 uM) [1]
Y | Cc1ccnc(C(C)C)c1-n1c(=O)nc(NC2CN(S(=O)(=O)c3c(F)c(F)c(F)c(F)c3C(F)(F)F)C2)c2cc(F)c(-c3c(O)cccc3F)nc21 [Compound 15A, 6-fluoro-7-(2-fluoro-6-hydroxyphenyl)-1-(2-isopropyl-4-methylpyridin-3-yl)-4-((1-((2,3,4,5-tetrafluoro-6-(trifluoromethyl)phenyl)sulfonyl)azetidin-3-yl)amino)pyrido[2,3-d]pyrimidin-2(1H)-one] | X
Y | Cc1ccnc(C(C)C)c1-n1c(=O)nc(NC2CN(S(=O)(=O)c3c(F)c(F)c(F)c(F)c3C(F)(F)F)C2)c2cc(F)c(Cl)nc21 [Compound 14A, 7-chloro-6-fluoro-1-(2-isopropyl-4-methylpyridin-3-yl)-4-((1-((2,3,4,5-tetrafluoro-6-(trifluoromethyl)phenyl)sulfonyl)azetidin-3-yl)amino)pyrido[2,3-d]pyrimidin-2(1H)-one] | X
